From US12180193B2, “Accelerating fibrosarcoma protein degrading compounds and associated methods of use” (Arvinas Operations, Inc., priority 2020, dated 2024)

Tests used:
BRAF G466V = target: T1, BRAF G466V (Homo sapiens, UniProt P15056, G466V); assay: Cellular assay of target protein degradation, T-Rex 293 cells stably transfected with HA-BRAF G466V (HA immunofluorescence, high content imaging); type: cell-based; conditions: T-Rex 293 HA-BRAF G466V; for DC50: half maximal degradation, read-out: BRaf G466V DC50; for Dmax: maximum degradation observed
T1 construct: expressed in transfected cells
T1 sequence (P15056 whole entry G466V): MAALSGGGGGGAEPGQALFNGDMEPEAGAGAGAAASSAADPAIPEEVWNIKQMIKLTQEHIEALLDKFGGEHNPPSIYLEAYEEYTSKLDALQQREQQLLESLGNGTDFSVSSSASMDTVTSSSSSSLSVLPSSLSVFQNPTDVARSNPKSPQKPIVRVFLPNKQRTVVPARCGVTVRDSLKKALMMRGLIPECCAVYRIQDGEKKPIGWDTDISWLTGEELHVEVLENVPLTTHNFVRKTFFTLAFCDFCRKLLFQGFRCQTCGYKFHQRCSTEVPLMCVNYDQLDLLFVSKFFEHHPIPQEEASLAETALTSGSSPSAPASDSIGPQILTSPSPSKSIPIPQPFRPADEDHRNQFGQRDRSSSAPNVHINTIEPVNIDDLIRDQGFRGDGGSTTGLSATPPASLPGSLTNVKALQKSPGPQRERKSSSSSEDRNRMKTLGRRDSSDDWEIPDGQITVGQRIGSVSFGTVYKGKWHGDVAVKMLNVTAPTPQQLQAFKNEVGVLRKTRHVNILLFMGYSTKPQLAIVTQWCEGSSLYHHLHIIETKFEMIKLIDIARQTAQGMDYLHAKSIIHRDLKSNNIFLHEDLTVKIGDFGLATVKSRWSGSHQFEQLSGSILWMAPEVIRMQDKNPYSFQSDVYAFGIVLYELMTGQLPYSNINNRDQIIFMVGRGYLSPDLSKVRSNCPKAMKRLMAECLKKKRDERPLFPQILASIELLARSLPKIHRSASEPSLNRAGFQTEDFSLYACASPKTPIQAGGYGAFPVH
How it was run: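 Cells expressing doxycycline-induced (0.75 ng/mL) HA-BRAF G466V were treated with compound at 30 nM to 3 pM in 0.1% DMSO for 24 hours at 37° C. After fixation and permeabilization, HA was immunostained and quantified by high content imaging to derive DC50 and Dmax.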

BRAF V600E = target: T2, BRAF V600E (Homo sapiens, UniProt P15056, V600E); assay: Cellular assay of target protein degradation, T-Rex 293 cells stably transfected with HA-BRAF_V600E (HA immunofluorescence, high content imaging); type: cell-based; conditions: T-Rex 293 HA-BRAF V600E; for DC50: half maximal degradation, read-out: BRaf V600E DC50; for Dmax: maximum degradation observed
T2 construct: expressed in transfected cells
T2 sequence (P15056 whole entry V600E): as the sequence (P15056 whole entry G466V) above, with V466G, V600E counted along it
How it was run: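 Doxycycline-induced (1 ng/mL) cells were treated 24 h at 37 °C with compound at 1 μM to 0.1 nM final in 0.1% DMSO. After fixation, permeabilization and blocking, anti-HA staining was imaged by high-content reading; DC50 and Dmax (% of control) were derived.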

SMILES | DC50 (BRAF G466V) | Dmax (BRAF G466V) | DC50 (BRAF V600E) | Dmax (BRAF V600E)
O=C1CCC(N2Cc3cc(N4CCC(N5CCN(CC6CN(c7ccc(-c8cnc9[nH]cc(C(=O)c%10c(F)ccc(NS(=O)(=O)N%11CC[C@@H](F)C%11)c%10F)c9c8)cc7)C6)CC5)CC4)ccc3C2=O)C(=O)N1 (stereo partly drawn) [Compound 144, (3R)-N-{3-[5-(4-{3-[(4-{1-[2-(2,6-dioxopiperidin-3-yl)-1-oxo-2,3-dihydro-1H-isoindol-5-yl]piperidin-4-yl}piperazin-1-yl)methyl]azetidin-1-yl}phenyl)-1H-pyrrolo[2,3-b]pyridine-3-carbonyl]-2,4-difluorophenyl}-3-fluoropyrrolidine-1-sulfonamide] | 0.001 to 0.01 µM | > 70% | < 0.005 µM | 35 to 70%
CN(CCN1CCN(c2ccc3c(c2)CN(C2CCC(=O)NC2=O)C3=O)CC1)[C@H]1CC[C@H](Oc2ccc(-c3cnc4[nH]cc(C(=O)c5c(F)ccc(NS(=O)(=O)N6CC[C@@H](F)C6)c5F)c4c3)cc2)CC1 (stereo partly drawn) [Compound 145, (3R)-N-{2,4-difluoro-3-[5-(4-{[(1r,4r)-4-[(2-{4-[2-(2,6-dioxopiperidin-3-yl)-1-oxo-2,3-dihydro-1H-isoindol-5-yl]piperazin-1-yl}ethyl)(methyl)amino]cyclohexyl]oxy}phenyl)-1H-pyrrolo[2,3-b]pyridine-3-carbonyl]phenyl}-3-fluoropyrrolidine-1-sulfonamide] | 0.001 to 0.01 µM | > 70% | 0.005 to 0.05 µM | 35 to 70%
O=C1CCC(N2Cc3cc(N4CCC(CN5CCN(Cc6ccc(-c7cnc8[nH]cc(C(=O)c9c(F)ccc(NS(=O)(=O)N%10CC[C@@H](F)C%10)c9F)c8c7)cc6)CC5)CC4)ccc3C2=O)C(=O)N1 (stereo partly drawn) [Compound 146, (3R)-N-{3-[5-(4-{[4-({1-[2-(2,6-dioxopiperidin-3-yl)-1-oxo-2,3-dihydro-1H-isoindol-5-yl]piperidin-4-yl}methyl)piperazin-1-yl]methyl}phenyl)-1H-pyrrolo[2,3-b]pyridine-3-carbonyl]-2,4-difluorophenyl}-3-fluoropyrrolidine-1-sulfonamide] | 0.001 to 0.01 µM | > 70% | 0.005 to 0.05 µM | 35 to 70%
O=C1CCC(N2Cc3cc(CCCN4CC5(C4)CN(c4ncc(-c6cnc7[nH]cc(C(=O)c8c(F)ccc(NS(=O)(=O)N9CC[C@@H](F)C9)c8F)c7c6)cn4)C5)ccc3C2=O)C(=O)N1 (stereo partly drawn) [Compound 147, (3R)-N-(3-{5-[2-(6-{3-[2-(2,6-dioxopiperidin-3-yl)-1-oxo-2,3-dihydro-1H-isoindol-5-yl]propyl}-2,6-diazaspiro[3.3]heptan-2-yl)pyrimidin-5-yl]-1H-pyrrolo[2,3-b]pyridine-3-carbonyl}-2,4-difluorophenyl)-3-fluoropyrrolidine-1-sulfonamide] | 0.001 to 0.01 µM | 35 to 70% | 0.05 to 0.5 µM | 35 to 70%
O=C1CCC(N2Cc3cc(CCOCCN4CCN(c5ccc(-c6cnc7[nH]cc(C(=O)c8c(F)ccc(NS(=O)(=O)N9CC[C@@H](F)C9)c8F)c7c6)cc5)CC4)ccc3C2=O)C(=O)N1 (stereo partly drawn) [Compound 148, (3R)-N-[3-(5-{4-[4-(2-{2-[2-(2,6-dioxopiperidin-3-yl)-1-oxo-2,3-dihydro-1H-isoindol-5-yl]ethoxy}ethyl)piperazin-1-yl]phenyl}-1H-pyrrolo[2,3-b]pyridine-3-carbonyl)-2,4-difluorophenyl]-3-fluoropyrrolidine-1-sulfonamide] | 0.001 to 0.01 µM | > 70% | 0.005 to 0.05 µM | 35 to 70%
O=C1CCC(N2Cc3cc(C4CCN(CCc5ccc(-c6cnc7[nH]cc(C(=O)c8c(F)ccc(NS(=O)(=O)N9CC[C@@H](F)C9)c8F)c7c6)cc5)[C@H](CO)C4)ccc3C2=O)C(=O)N1 (stereo partly drawn) [Compound 149, (3R)-N-{3-[5-(4-{2-[(2S)-4-[2-(2,6-dioxopiperidin-3-yl)-1-oxo-2,3-dihydro-1H-isoindol-5-yl]-2-(hydroxymethyl)piperidin-1-yl]ethyl}phenyl)-1H-pyrrolo[2,3-b]pyridine-3-carbonyl]-2,4-difluorophenyl}-3-fluoropyrrolidine-1-sulfonamide] | 0.001 to 0.01 µM | > 70% | 0.05 to 0.5 µM | 35 to 70%
O=C1CCC(N2Cc3cc(C4CCN(CCc5ccc(-c6cnc7[nH]cc(C(=O)c8c(F)ccc(NS(=O)(=O)N9CC[C@@H](F)C9)c8F)c7c6)cc5)[C@@H](CO)C4)ccc3C2=O)C(=O)N1 (stereo partly drawn) [Compound 150, (3R)-N-{3-[5-(4-{2-[(2R)-4-[2-(2,6-dioxopiperidin-3-yl)-1-oxo-2,3-dihydro-1H-isoindol-5-yl]-2-(hydroxymethyl)piperidin-1-yl]ethyl}phenyl)-1H-pyrrolo[2,3-b]pyridine-3-carbonyl]-2,4-difluorophenyl}-3-fluoropyrrolidine-1-sulfonamide] | 0.001 to 0.01 µM | > 70% | 0.05 to 0.5 µM | 35 to 70%
O=C1CCC(N2Cc3cc(CCOCCN4CCC(c5ccc(-c6cnc7[nH]cc(C(=O)c8c(F)ccc(NS(=O)(=O)N9CC[C@@H](F)C9)c8F)c7c6)cc5)CC4)ccc3C2=O)C(=O)N1 (stereo partly drawn) [Compound 151, (3R)-N-[3-(5-{4-[1-(2-{2-[2-(2,6-dioxopiperidin-3-yl)-1-oxo-2,3-dihydro-1H-isoindol-5-yl]ethoxy}ethyl)piperidin-4-yl]phenyl}-1H-pyrrolo[2,3-b]pyridine-3-carbonyl)-2,4-difluorophenyl]-3-fluoropyrrolidine-1-sulfonamide] | 0.001 to 0.01 µM | > 70% | 0.05 to 0.5 µM | 35 to 70%
O=C1CCC(N2Cc3cc(N4CCN(CCc5ccc(-c6cnc7[nH]cc(C(=O)c8c(F)ccc(NS(=O)(=O)N9CC[C@@H](F)C9)c8F)c7c6)cc5)CC4)c(F)cc3C2=O)C(=O)N1 (stereo partly drawn) [Compound 152, (3R)-N-(3-{5-[4-(2-{4-[2-(2,6-dioxopiperidin-3-yl)-6-fluoro-1-oxo-2,3-dihydro-1H-isoindol-5-yl]piperazin-1-yl}ethyl)phenyl]-1H-pyrrolo[2,3-b]pyridine-3-carbonyl}-2,4-difluorophenyl)-3-fluoropyrrolidine-1-sulfonamide] | 0.001 to 0.01 µM | > 70% | 0.005 to 0.05 µM | 35 to 70%
O=C1CCC(N2Cc3cc(N4CCC(CN5CCN(Cc6ncc(-c7cnc8[nH]cc(C(=O)c9c(F)ccc(NS(=O)(=O)N%10CC[C@@H](F)C%10)c9F)c8c7)cn6)CC5)CC4)ccc3C2=O)C(=O)N1 (stereo partly drawn) [Compound 153, (3R)-N-{3-[5-(2-{[4-({1-[2-(2,6-dioxopiperidin-3-yl)-1-oxo-2,3-dihydro-1H-isoindol-5-yl]piperidin-4-yl}methyl)piperazin-1-yl]methyl}pyrimidin-5-yl)-1H-pyrrolo[2,3-b]pyridine-3-carbonyl]-2,4-difluorophenyl}-3-fluoropyrrolidine-1-sulfonamide] | 0.001 to 0.01 µM | > 70% | 0.05 to 0.5 µM | > 70%
O=C1CCC(N2Cc3cc(N4CCC(CN5CCC(Cc6ccc(-c7cnc8[nH]cc(C(=O)c9c(F)ccc(NS(=O)(=O)N%10CC[C@@H](F)C%10)c9F)c8c7)cc6)CC5)CC4)ccc3C2=O)C(=O)N1 (stereo partly drawn) [Compound 154, (3R)-N-{3-[5-(4-{[1-({1-[2-(2,6-dioxopiperidin-3-yl)-1-oxo-2,3-dihydro-1H-isoindol-5-yl]piperidin-4-yl}methyl)piperidin-4-yl]methyl}phenyl)-1H-pyrrolo[2,3-b]pyridine-3-carbonyl]-2,4-difluorophenyl}-3-fluoropyrrolidine-1-sulfonamide] | < 0.001 µM | > 70% | 0.005 to 0.05 µM | 35 to 70%
